The subject of this assay is JR251 or RBL cells. The assay can be described thus: Store-operated calcium entry, either JR251 or RBL cells, or both. The assay is classed as cell-based. Put shortly:
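FLIPR calcium-entry readout in fluo-4-loaded cells held in Ca2+-free HBSS before calcium add-back. For RBL-2H3, store depletion used thapsigargin for 25 min after a 5 min compound pre-incubation, and IC50 was based on the 7 s Upslope. For Orai1/STIM1 stable cells, compound was pre-incubated 30 min and IC50 was based on Peak-Basal.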

Experimental findings from patent US8394848B2, “Compounds that modulate intracellular calcium” (Calcimedica, Inc., priority 2008, dated 2013) are described below.

As a reminder, the IC50 is the concentration that inhibits the measured activity by half. With `Cn1ncc(C(=O)Nc2scc(-c3ccc(Br)cc3)c2C(=O)O)c1Cl` [4-(4-bromophenyl)-2-(5-chloro-1-methyl-1H-pyrazole-4-carboxamido)thiophene-3-carboxylic acid], the IC50 was less than 10 µM.

Take `O=C(O)c1c(-c2ccc(Br)cc2)csc1NC(=O)C1Cc2cc(Cl)ccc2O1` (stereo not drawn) [4-(4-bromophenyl)-2-(5-chloro-2,3-dihydrobenzofuran-2-carboxamido)thiophene-3-carboxylic acid]: the IC50 is less than 10 µM.

As to `O=C(Nc1scc(-c2ccc(Br)cc2)c1C(=O)O)c1nc2cc(Cl)ccc2o1` [4-(4-bromophenyl)-2-(5-chlorobenzo[d]oxazole-2-carboxamido)thiophene-3-carboxylic acid], the half-inhibitory concentration (IC50) is less than 10 µM.

`O=C(Nc1scc(-c2ccc(Br)cc2)c1C(=O)O)c1ccc(-c2ccccc2)s1` [4-(4-bromophenyl)-2-(5-phenylthiophene-2-carboxamido)thiophene-3-carboxylic acid]: the IC50 is less than 10 µM.

Take `O=C(Nc1scc(-c2ccc(Br)cc2)c1C(=O)O)c1ccc(C(F)(F)F)nc1` [4-(4-bromophenyl)-2-(6-(trifluoromethyl)nicotinamido)thiophene-3-carboxylic acid]: the 50% inhibitory concentration (IC50) is less than 10 µM.

For the compound `O=C(Nc1scc(-c2ccc(Br)cc2)c1C(=O)O)c1cccc(F)n1` [4-(4-bromophenyl)-2-(6-fluoropicolinamido)thiophene-3-carboxylic acid], the half-maximal inhibitory concentration (IC50) was less than 10 µM.

Consider `COc1cccc(C(=O)Nc2scc(-c3ccc(Br)cc3)c2C(=O)O)n1` [4-(4-bromophenyl)-2-(6-methoxypicolinamido)thiophene-3-carboxylic acid], for which the IC50 was less than 10 µM.

Take `Cc1ccc(C(=O)Nc2scc(-c3ccc(Br)cc3)c2C(=O)O)cn1` [4-(4-bromophenyl)-2-(6-methylnicotinamido)thiophene-3-carboxylic acid]: the IC50 is less than 10 µM.

On to `N#Cc1cccc2nc(C(=O)Nc3scc(-c4ccc(Br)cc4)c3C(=O)O)oc12` [4-(4-bromophenyl)-2-(7-cyanobenzo[d]oxazole-2-carboxamido)thiophene-3-carboxylic acid], for which the IC50 is less than 10 µM.

For the compound `O=C(Nc1scc(-c2ccc(Br)cc2)c1C(=O)O)c1nc2cccc(F)c2o1` [4-(4-bromophenyl)-2-(7-fluorobenzo[d]oxazole-2-carboxamido)thiophene-3-carboxylic acid], the IC50 was less than 10 µM.

On to `COc1cccc2c1CC(C(=O)Nc1scc(-c3ccc(Br)cc3)c1C(=O)O)CC2` (stereo not drawn) [4-(4-bromophenyl)-2-(8-methoxy-1,2,3,4-tetrahydronaphthalene-2-carboxamido)thiophene-3-carboxylic acid], for which the IC50 is less than 10 µM.

With `O=C(Nc1scc(-c2ccc(Br)cc2)c1C(=O)O)OCc1ccccc1Cl` [4-(4-bromophenyl)-2-((2-chlorobenzyloxy)carbonylamino)thiophene-3-carboxylic acid], the 50% inhibitory concentration (IC50) was less than 10 µM.

For the compound `O=C(O)c1c(-c2ccc(Br)cc2)csc1NC(=O)C1COc2ccccc2C1` (stereo not drawn) [4-(4-bromophenyl)-2-(chroman-3-carboxamido)thiophene-3-carboxylic acid], the IC50 was less than 10 µM.

On to `O=C(Nc1scc(-c2ccc(Br)cc2)c1C(=O)O)c1ccco1` [4-(4-bromophenyl)-2-(furan-2-carboxamido)thiophene-3-carboxylic acid], for which the IC50 was less than 10 µM.

As to `O=C(Nc1scc(-c2ccc(Br)cc2)c1C(=O)O)c1cn2ccccc2n1` [4-(4-bromophenyl)-2-(imidazo[1,2-a]pyridine-2-carboxamido)thiophene-3-carboxylic acid], the IC50 is less than 10 µM.

In the case of `O=C(O)c1c(-c2ccc(Br)cc2)csc1NC(=O)N1Cc2ccccc2C1` [4-(4-bromophenyl)-2-(isoindoline-2-carboxamido)thiophene-3-carboxylic acid], the half-maximal inhibitory concentration (IC50) was less than 10 µM.

Take `O=C(Nc1scc(-c2ccc(Br)cc2)c1C(=O)O)c1ccncc1` [4-(4-bromophenyl)-2-(isonicotinamido)thiophene-3-carboxylic acid]: the IC50 was less than 10 µM.

Regarding `O=C(Nc1scc(-c2ccc(Br)cc2)c1C(=O)O)c1cccnc1` [4-(4-bromophenyl)-2-(nicotinamido)thiophene-3-carboxylic acid], the 50% inhibitory concentration (IC50) was less than 10 µM.

On to `O=C(Nc1scc(-c2ccc(Br)cc2)c1C(=O)O)c1cnccn1` [4-(4-bromophenyl)-2-(pyrazine-2-carboxamido)thiophene-3-carboxylic acid], for which the half-inhibitory concentration (IC50) was less than 10 µM.

`O=C(Nc1scc(-c2ccc(Br)cc2)c1C(=O)O)c1cc2ccccn2n1` [4-(4-bromophenyl)-2-(pyrazolo[1,5-a]pyridine-2-carboxamido)thiophene-3-carboxylic acid]: the IC50 is less than 10 µM.

`O=C(Nc1scc(-c2ccc(Br)cc2)c1C(=O)O)c1ccnnc1` [4-(4-bromophenyl)-2-(pyridazine-4-carboxamido)thiophene-3-carboxylic acid]: the IC50 was less than 10 µM.

For `O=C(Nc1scc(-c2ccc(Br)cc2)c1C(=O)O)c1ccc2ccccc2n1` [4-(4-bromophenyl)-2-(quinoline-2-carboxamido)thiophene-3-carboxylic acid], the IC50 is less than 10 µM.

In the case of `O=C(Nc1scc(-c2ccc(Br)cc2)c1C(=O)O)c1cnc2ccccc2n1` [4-(4-bromophenyl)-2-(quinoxaline-2-carboxamido)thiophene-3-carboxylic acid], the half-inhibitory concentration (IC50) was less than 10 µM.

Consider `O=C(CCc1ccccc1)Nc1scc(-c2ccc(Cl)cc2F)c1C(=O)O` [4-(4-chloro-2-fluorophenyl)-2-(3-phenylpropanamido)thiophene-3-carboxylic acid], for which the IC50 is less than 10 µM.

Turning to `O=C(Nc1scc(-c2ccc(Cl)cc2F)c1C(=O)O)c1nc2cccc(F)c2s1` [4-(4-chloro-2-fluorophenyl)-2-(7-fluorobenzo[d]thiazole-2-carboxamido)thiophene-3-carboxylic acid], the IC50 was less than 10 µM.

`O=C(Nc1scc(-c2ccc(Cl)c(F)c2)c1C(=O)O)c1nc2c(F)cccc2o1` [4-(4-chloro-3-fluorophenyl)-2-(4-fluorobenzo[d]oxazole-2-carboxamido)thiophene-3-carboxylic acid]: the IC50 was less than 10 µM.

For `O=C(Nc1scc(-c2ccc(Cl)c(F)c2)c1C(=O)O)c1nc2cccc(F)c2o1` [4-(4-chloro-3-fluorophenyl)-2-(7-fluorobenzo[d]oxazole-2-carboxamido)thiophene-3-carboxylic acid], the IC50 is less than 10 µM.

With `O=C(O)c1c(-c2ccc(Cl)cc2)csc1NC(=O)C1CCc2ccccc2C1` (stereo not drawn) [4-(4-chlorophenyl)-2-(1,2,3,4-tetrahydronaphthalene-2-carboxamido)thiophene-3-carboxylic acid], the half-maximal inhibitory concentration (IC50) was less than 10 µM.

On to `O=C(O)c1c(-c2ccc(Cl)cc2)csc1NC(=O)C1Cc2ccccc21` (stereo not drawn) [4-(4-chlorophenyl)-2-(1,2-dihydrocyclobutabenzene-1-carboxamido)thiophene-3-carboxylic acid], for which the concentration for half-maximal inhibition (IC50) was less than 10 µM.

Turning to `Cc1nn(C)c2sc(C(=O)Nc3scc(-c4ccc(Cl)cc4)c3C(=O)O)cc12` [4-(4-chlorophenyl)-2-(1,3-dimethyl-1H-thieno[2,3-c]pyrazole-5-carboxamido)thiophene-3-carboxylic acid], the IC50 is less than 10 µM.

`O=C(O)c1c(-c2ccc(Cl)cc2)csc1NC(=O)C1(c2ccc(Cl)cc2)CC1` [4-(4-chlorophenyl)-2-(1-(4-chlorophenyl)cyclopropanecarboxamido)thiophene-3-carboxylic acid]: the IC50 was less than 10 µM.

With `Cn1cnc(C(=O)Nc2scc(-c3ccc(Cl)cc3)c2C(=O)O)c1` [4-(4-chlorophenyl)-2-(1-methyl-1H-imidazole-4-carboxamido)thiophene-3-carboxylic acid], the IC50 was less than 10 µM.

As to `Cn1nc(C(=O)Nc2scc(-c3ccc(Cl)cc3)c2C(=O)O)cc1-c1ccccc1` [4-(4-chlorophenyl)-2-(1-methyl-5-phenyl-1H-pyrazole-3-carboxamido)thiophene-3-carboxylic acid], the half-maximal inhibitory concentration (IC50) is less than 10 µM.

`O=C(Nc1scc(-c2ccc(Cl)cc2)c1C(=O)O)c1cnn(-c2ccccc2)c1` [4-(4-chlorophenyl)-2-(1-phenyl-1H-pyrazole-4-carboxamido)thiophene-3-carboxylic acid]: the IC50 is less than 10 µM.

Turning to `O=C(Nc1scc(-c2ccc(Cl)cc2)c1C(=O)O)c1cnn(-c2ccccc2)c1C(F)(F)F` [4-(4-chlorophenyl)-2-(1-phenyl-5-(trifluoromethyl)-1H-pyrazole-4-carboxamido)thiophene-3-carboxylic acid], the IC50 was less than 10 µM.

`O=C(O)c1c(-c2ccc(Cl)cc2)csc1NC(=O)C1Cc2ccccc2C1` [4-(4-chlorophenyl)-2-(2,3-dihydro-1H-indene-2-carboxamido)thiophene-3-carboxylic acid]: the half-inhibitory concentration (IC50) is less than 10 µM.

Take `O=C(O)c1c(-c2ccc(Cl)cc2)csc1NC(=O)C1COc2ccccc2O1` (stereo not drawn) [4-(4-chlorophenyl)-2-(2,3-dihydrobenzo[b][1,4]dioxine-2-carboxamido)thiophene-3-carboxylic acid]: the IC50 is less than 10 µM.

Consider `O=C(O)c1c(-c2ccc(Cl)cc2)csc1NC(=O)C1Cc2ccccc2S1` (stereo not drawn) [4-(4-chlorophenyl)-2-(2,3-dihydrobenzo[b]thiophene-2-carboxamido)thiophene-3-carboxylic acid], for which the concentration for half-maximal inhibition (IC50) was less than 10 µM.

For the compound `O=C(Nc1scc(-c2ccc(Cl)cc2)c1C(=O)O)c1cc(Cl)sc1Cl` [4-(4-chlorophenyl)-2-(2,5-dichlorothiophene-3-carboxamido)thiophene-3-carboxylic acid], the IC50 is less than 10 µM.

Regarding `Cc1cc(C(=O)Nc2scc(-c3ccc(Cl)cc3)c2C(=O)O)c(C)o1` [4-(4-chlorophenyl)-2-(2,5-dimethylfuran-3-carboxamido)thiophene-3-carboxylic acid], the 50% inhibitory concentration (IC50) was less than 10 µM.

`O=C(Nc1scc(-c2ccc(Cl)cc2)c1C(=O)O)c1ccc(Cl)nc1Cl` [4-(4-chlorophenyl)-2-(2,6-dichloronicotinamido)thiophene-3-carboxylic acid]: the IC50 is less than 10 µM.

As for `COc1ccc(C(=O)Nc2scc(-c3ccc(Cl)cc3)c2C(=O)O)c(OC)n1` [4-(4-chlorophenyl)-2-(2,6-dimethoxynicotinamido)thiophene-3-carboxylic acid], the half-maximal inhibitory concentration (IC50) was less than 10 µM.
